Experimental data from US7935703B2, “Piperazines and piperidines as Mglur5 potentiators” (AstraZeneca AB, priority 2006, dated 2011).

Molecular target: T1, human mGluR5d (Homo sapiens, UniProt P41594)
T1 construct: expressed in transfected cells; host or cells: GHEK cells (human embryonic kidney cells expressing glutamate transporter), stated for the IP3 assay
Experiment: functional assays for mGluR5 potentiation: [Ca2+]i mobilization (FLIPR), secondary IP3 turnover assay
Format: cell-based
Details: active in assays described herein; which assay (FLIPR or IP3) is not stated
Excerpt: The pharmacological properties of the compounds of the invention can be analyzed using standard assays for functional activity. Examples of glutamate receptor assays are well known in the art as described in for example Aramori et al., Neuron 8:757 (1992), Tanabe et al., Neuron 8:169 (1992), Miller et al., J Neuroscience 15: 6103 (1995), Balazs, et al., J. Neurochemistry 69:151 (1997). The methodology described in these publications is incorporated herein by reference. Conveniently, the compounds of the invention can be studied by means of an assay that measures the mobilization of intracellular calcium, [Ca^2+]i in cells expressing mGluR5.
Intracellular calcium mobilization was measured by detecting changes in fluorescence of cells loaded with the fluorescent indicator fluo-3. Fluorescent signals were measured using the FLIPR system (Molecular Devices). A two addition experiment was used that could detect compounds that either activate or antagonize the receptor.
For FLIPR analysis, cells expressing human mGluR5d were seeded on collagen coated clear bottom 96-well plates with black sides and analysis of [Ca^2+]i mobilization was done 24 hours after seeding.
FLIPR experiments were performed using a laser setting of 0.800 W and a 0.4 second CCD camera shutter speed. Each FLIPR experiment was initiated with 160 μL of buffer present in each well of the cell plate. After each addition of the compound, the fluorescence signal was sampled 50 times at 1 second intervals followed by 3 samples at 5 second intervals. Responses were measured as the peak height of the response within the sample period.
EC50 and IC50 determinations were made from data obtained from 8-point concentration response curves (CRC) performed in duplicate. Agonist CRC were generated by scaling all responses to the maximal response observed for the plate. Antagonist block of the agonist challenge was normalized to the average response of the agonist challenge in 14 control wells on the same plate.
We have validated a secondary functional assay for mGluR5d based on Inositol Phosphate (IP3) turnover. IP3 accumulation is measured as an index of receptor mediated phospholipase C turnover. GHEK cells stably expressing the human mGluR5d receptors were incubated with [3H] myo-inositol overnight, washed three times in HEPES buffered saline and pre-incubated for 10 minutes with 10 mM LiCl. Compounds (agonists) were added and incubated for 30 minutes at 37° C. Antagonist and potentiator activity was determined by pre-incubating test compounds for 15 minutes, then incubating in the presence of glutamate or DHPG (EC80 for antagonists, EC30 for potentiators) for 30 minutes. Reactions were terminated by the addition of perchloric acid (5%). […]

T1 sequence (P41594 21-942 isoform P41594-3 limits assumed): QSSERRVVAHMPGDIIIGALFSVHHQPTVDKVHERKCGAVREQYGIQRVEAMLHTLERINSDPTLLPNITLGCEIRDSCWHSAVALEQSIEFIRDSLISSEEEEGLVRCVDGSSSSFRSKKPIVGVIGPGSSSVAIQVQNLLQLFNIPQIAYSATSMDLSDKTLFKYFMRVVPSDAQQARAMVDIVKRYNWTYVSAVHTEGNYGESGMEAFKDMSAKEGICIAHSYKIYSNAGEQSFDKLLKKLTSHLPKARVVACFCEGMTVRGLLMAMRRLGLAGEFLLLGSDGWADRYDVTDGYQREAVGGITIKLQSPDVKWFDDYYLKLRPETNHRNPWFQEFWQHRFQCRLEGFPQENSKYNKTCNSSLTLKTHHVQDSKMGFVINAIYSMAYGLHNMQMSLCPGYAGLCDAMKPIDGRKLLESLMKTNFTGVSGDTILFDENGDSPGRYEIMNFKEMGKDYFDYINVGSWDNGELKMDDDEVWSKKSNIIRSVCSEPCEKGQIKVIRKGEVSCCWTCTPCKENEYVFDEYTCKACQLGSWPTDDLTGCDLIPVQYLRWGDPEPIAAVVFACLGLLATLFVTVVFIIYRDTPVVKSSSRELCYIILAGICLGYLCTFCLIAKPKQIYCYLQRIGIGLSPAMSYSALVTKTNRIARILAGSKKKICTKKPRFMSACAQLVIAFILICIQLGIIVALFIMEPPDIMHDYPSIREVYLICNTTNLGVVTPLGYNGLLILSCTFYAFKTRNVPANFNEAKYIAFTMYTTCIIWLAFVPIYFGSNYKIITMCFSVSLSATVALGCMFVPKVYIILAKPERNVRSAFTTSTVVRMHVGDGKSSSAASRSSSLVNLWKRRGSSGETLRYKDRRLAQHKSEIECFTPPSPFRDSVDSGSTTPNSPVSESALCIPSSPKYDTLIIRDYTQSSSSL

Row | EC50 [µM] | SMILES
1 | 0.6 | O=C(COCc1ccccc1)N1CCN(c2ccccc2)CC1 [Compound 12, 2-Benzyloxy-1-(4-phenyl-piperazin-1-yl)-ethanone]
2 | 5.1 | N#Cc1cccnc1N1CCN(C(=O)COCc2ccccc2)CC1 [Compound 23, 2-[4-(2-Benzyloxy-acetyl)-piperazin-1-yl]-nicotinonitrile]
3 | 0.4 | O=C(COCc1ccc(F)cc1)N1CCN(c2ccc(F)cc2F)CC1 [Compound 48, 1-[4-(2,4-Difluoro-phenyl)-piperazin-1-yl]-2-(4-fluoro-benzyloxy)-ethanone]
4 | 2.3 | C[C@@H]1CN(c2ccc(Cl)cc2Cl)CCN1C(=O)COCc1ccncc1 [Compound 58, 1-[(R)-4-(2,4-Dichloro-phenyl)-2-methyl-piperazin-1-yl]-2-(pyridin-4-ylmethoxy)-ethanone]
